# Assays:
# P. aeruginosa [1] = assay: Bacterial growth curves; assay type: cell-based, Pseudomonas aeruginosa; details: growth curves
# Experimental: Pseudomonas aeruginosa strain PAO1 (P. aeruginosa) was grown in M9 minimal medium (1.0 g/L NH4Cl, 0.5 g/L NaCl, 6.0 g/L Na2HPO4, 3.0 g/L KH2PO4) supplemented with 1.0 mM MgSO4, 1.0 mM ZnSO4, 0.2 mM CaCl2, 0.4% (w/v) glucose and 0.2% (w/v) casein hydrolysate. Gram-negative Escherichia coli strain K-12 (E. coli) and Burkholderia cepacia J2315 (B. cepacia) were cultured in Luria-Bertani (LB) medium (5 g/L yeast extract, 10 g/L tryptone, 10 g/L sodium chloride). The Gram-positive Staphylococcus aureus strain Newman (S. aureus) was grown in Tryptic Soy Broth (TSB) medium (17 g/L Tryptone, 3 g/L Phytone, 5 g/L sodium chloride, 2.5 g/L dipotassium phosphate and glucose 2.5 g/L).
# P. aeruginosa [2] = assay: Checkerboard assay with antibiotics; assay type: cell-based, Pseudomonas aeruginosa; details: with tobramycin and colistin
# Description: Figure S4. Heat plots of checkerboard assays for gold(I) compounds in combination with different antibiotics against P. aeruginosa.
# P. aeruginosa [3] = assay: Drug resistance development assay (serial passage); assay type: cell-based, Pseudomonas aeruginosa; details: serial passage at sub-lethal concentrations over 14 days
# Experimental: Development of resistance to the Au1 compound and the antibiotics (ciprofloxacin and tobramycin) were assessed as described by [Habets and Brockhurst (2012)]. The MIC assay was performed on the first day as described above. […] Thereafter, a new passage MIC measurement assay was prepared using diluted bacterial cells grown at 0.5-fold MIC suspension. This was repeated for 14 passages and the MIC values for Au1, ciprofloxacin and tobramycin were recorded for each passage.
# pyocyanin = assay: Quantification of secreted pyocyanin; assay type: cell-based, Pseudomonas aeruginosa; details: 15 μM; 24 h
# Experimental: (§1) To quantify the secreted virulence factors, overnight P. aeruginosa PAO1 was diluted in fresh M9 medium and cultured to a final OD600 value of 0.15. Then Au1 or auranofin were added into culture with indicated concentrations. After 24 h incubation at 37°C, the bacterial supernatants were collected by centrifugation at 4,000 g for 10 min at 4°C and filtered using a 0.22 μm syringe filter (Millipore). The secreted virulence factors in the supernatant were quantified by the methods described below.
# The bacterial secreted pyocyanin was quantified as described previously ([Essar et al., 1990]). Approximately 10 ml bacterial supernatant medium was collected by centrifugation. Subsequently, 3 ml chloroform was added into medium to extract the pyocyanin. The pyocyanin was re-extracted into 1 ml of 0.2 M HCl to give a pink to deep red solution after approximately 30 min. The pyocyanin concentration was determined by measurement the absorbance at 520 nm.
# pyoverdine = assay: Quantification of secreted pyoverdine; assay type: cell-based, Pseudomonas aeruginosa; details: 15 μM; 24 h
# Experimental: as §1
# rhamnolipid = assay: Rhamnolipid measurement (anthrone); assay type: cell-based, Pseudomonas aeruginosa; details: 15 μM
# Experimental: as §1
# For rhamnolipid measurement, rhamnolipid was extracted from the supernatant with a mixture of chloroform and methanol (v:v = 2:1). The organic solvent phase was then evaporated to dryness and 100 μL methanol was added to dissolve the extracted rhamnolipid. Then 200 μL of pre-cooled anthrone solution (dissolving 2 g of anthrone in 1 L of concentrated H2SO4) was added into 20 μL extracted rhamnolipid sample and heat at 80°C for 30min. The rhamnolipid concentration was determined by measurement the absorbance at 630 nm.
# P. aeruginosa [4] = assay: Time-course of bacterial membrane permeation, propidium iodide microplate; assay type: cell-based, Pseudomonas aeruginosa; details: 50 μM; 37°C
# Experimental: Overnight P. aeruginosa culture was diluted 1:100 with fresh M9 medium and grown to early-mid exponential phase (OD600 = 0.4–0.6). The culture was then diluted 1:10 into PBS and treated with the 50 μM concentration of Au1 or auranofin for 30 min. Then the bacteria were incubated with propidium iodide (PI), a dye that is excluded from cells with impermeable membrane. The CytoFLEX flow cytometry (Beckman Coulter) was used to measure the bacterial fluorescent intensities and the data was analyzed using CytExpert 2.4 software. For the time-course detection of the bacterial permeability induced by Au1 or auranofin, P. aeruginosa in early-mid exponential phase (OD600 = 0.2) was incubated with PI dye on a 96-well plate. Au1 or auranofin was added to a final concentration of 50 μM. The fluorescence signal (561 nm excitation, 590 nm emission) and OD600 value were recorded on Cytation5 microplate reader. Each experiment was performed in triplicates.
# P. aeruginosa PAO1 = assay: Mouse skin wound infection model; assay type: in vivo
# Experimental: Six-week-old female BALB/c mice were used for animal experiments to evaluate the healing effect of infected wounds in vivo. Briefly, mouse backs were cut to generate a circular wound (diameter 0.6 cm) with a hole punch and the wound was infiltrated using a medical cotton swab with P. aureginosa (overnight culture, OD600 = 0.3). The mice were randomly divided into three groups, including PBS, auranofin, and Au-1 groups (n = 5 in each group). The drugs were dissolved in DMSO and diluted with glycerol to a final concentration of 50 μM. After the bacterial fluid was dry, about 20 μL of the drug was added to the wound. Body weights and wound photography was recorded on days 0, 1, 3, 5, and 8. And on the 8th day, the mice were euthanized by chloral hydrate, the infectious tissues in all groups were collected and cultured into the LB plate for colony counting. The skin tissues were also fixed by paraformaldehyde solution (4%) for H&E, Gram, and Masson’s trichrome staining.
# The above results promoted us to further investigate whether the Au1 compound was also efficacious in an in vivo animal infection model. To this end, we used a mouse wound infection model to assess the anti-P. aeruginosa efficacy of Au1 as described previously ([Liao et al., 2017b]). In brief, a circular wound with a diameter of 6 mm was created on the flank of mice, and approximately 5 × 10^8 CFU of P. aeruginosa PAO1 were dipped onto the wound by medical cotton swab to induce infection. Treatment is administered on the 1st day with auranofin or Au1 compound (50 μM, 20 μL) was applied to the wounds. The wound sizes and mice weights were recorded each day. On the 8th day, the infection sites were excised and part of the tissues was fixed in 4% paraformaldehyde and embedded in paraffin. Four-micrometer sections were cut, stained with Gram, H&E, and Masson’s trichrome stain. The remained tissues were homogenized and serially diluted for CFU quantification (Figure 6A).
substance,measurement,setting,value
NHC^Me-Au-Cl [Au1],concentration at which P. aeruginosa growth was completely inhibited,P. aeruginosa [1],20 µM
same,synergistic effects with antibiotics,P. aeruginosa [2],synergistic effects
same,development of resistance,P. aeruginosa [3],not observed
same,pyocyanin secretion,pyocyanin,almost completely inhibited
same,decrease of pyoverdine siderophore secretion,pyoverdine,50%
same,synthesis of rhamnolipid,rhamnolipid,significantly suppress
same,time to initiation of bacterial membrane rupture,P. aeruginosa [4],1.5 h
same,state of infected wound,"P. aeruginosa PAO1; 50 μM, 20 μL on wound, 8th day",almost completely recovered
same,toxicity to the mice (mice weights),"P. aeruginosa PAO1; 50 μM, 20 μL on wound, 8 days",no significant toxicity
same,wound healing rate,"P. aeruginosa PAO1; 50 μM, 20 μL on wound, vs auranofin-treated or control group",much faster
same,bacteria in wound tissue (Gram staining),P. aeruginosa PAO1; 8th day,no bacteria was observed
same,reduction of live bacteria in the infection sites,"P. aeruginosa PAO1; 8th day, CFU, compared to control group",90%

# Reference: paper PMC9096233, “Identification of an Au(I) N-Heterocyclic Carbene Compound as a Bactericidal Agent Against Pseudomonas aeruginosa” (Frontiers in Chemistry, 2022)
